Here are results for 19 molecules from article PMC6736568, “Discovery of Novel Anti-cryptosporidial Activities From Natural Products by in vitro High-Throughput Phenotypic Screening” (Frontiers in Microbiology, 2019).

One data set relates to Cryptosporidium parvum. The data set can be described thus: qRT-PCR assay of the growth of C. parvum in vitro in HCT-8 host cells (primary and secondary screening, EC50). Type of data set: cell-based. As to conditions: Cryptosporidium parvum, HCT-8; for inhibition at 3.3 µM: secondary screening at 3.3 uM, read-out: % Inhibition (3.3 uM).
Setting [1] is: primary screening at 10 uM, treated vs control.
Setting [2] is: primary screening at 10 uM, read-out: Inhibition (%).

Structures can show the parent of a compound that is named as a salt. Where two headings read alike, the source gives them in different places.

`CC(=O)N[C@@H](CC(=O)N[C@@H](CCC(=O)O)C(=O)O)C(=O)O` [SPAGLUMIC ACID]: the cytotoxicity at 10 µM in the data set “in vitro” worked out at 11.9%. Further, the “Hs18S ΔCT” value in the data set with HCT-8 host cells (Hs18S) (setting [1]) worked out at 0.18. The inhibition at 10 µM in the data set on Cryptosporidium parvum (setting [2]) is 31.3%.
As for `C1CCN2C[C@@H]3C[C@@H](CN4CCCC[C@@H]34)[C@H]2C1` [SPARTEINE SULFATE], the cytotoxicity at 10 µM in “in vitro” amounted to 3%. Moreover, the “Hs18S ΔCT” value in the data set with HCT-8 host cells (Hs18S) (setting [1]) was determined as 0.04. Also, the inhibition at 10 µM with Cryptosporidium parvum (setting [2]) was -14.6%.
Take `NCCCCNCCCN` [SPERMIDINE TRIHYDROCHLORIDE]: in the data set “in vitro” (human), the cytotoxicity at 41 h, 10 µM was -54.4%. Further, the “Hs18S ΔCT” value in the data set with HCT-8 host cells (Hs18S) (human, 41 h, 10 μM) is -0.63. Besides, the inhibition at 10 µM in the data set on Cryptosporidium parvum (setting [2]) came out at 23.9%.
Turning to `NCCCNCCCCNCCCN` [SPERMINE], the cytotoxicity at 41 h, 10 µM in the data set “in vitro” (human) was -35.1%. In addition, in the data set on HCT-8 host cells (Hs18S) (human, 41 h, 10 μM), the “Hs18S ΔCT” value is -0.43. In addition, the inhibition at 10 µM in the data set on Cryptosporidium parvum (setting [2]) was -7.42%.
Regarding `COc1cc2ccc(=O)oc2c2ccoc12` [SPHONDIN], the cytotoxicity at 10 µM in the data set “in vitro” came to 20.1%. Moreover, the “Hs18S ΔCT” value with HCT-8 host cells (Hs18S) (setting [1]) came out at 0.32. Moreover, the inhibition at 10 µM in the data set with Cryptosporidium parvum (setting [2]) was -5.49%.
Turning to `COc1cc(C)c2c(c1C=O)Oc1c(c(C)c(O)c3c1C(O)OC3=O)OC2=O` (centres unmarked) [STICTIC ACID], the cytotoxicity at 41 h, 10 µM in “in vitro” (human) was 5.5%. The “Hs18S ΔCT” value in the data set with HCT-8 host cells (Hs18S) (human, 41 h, 10 μM) is reported as 0.08. Besides, in the data set with Cryptosporidium parvum (setting [2]), the inhibition at 10 µM was -0.45%.
In the case of `CC[C@H](/C=C/[C@@H](C)[C@H]1CC[C@H]2[C@@H]3CC=C4C[C@@H](O)CC[C@]4(C)[C@H]3CC[C@]12C)C(C)C` [STIGMASTEROL], the cytotoxicity at 10 µM in the data set “in vitro” turned out to be 48.6%. Moreover, in the data set with HCT-8 host cells (Hs18S) (setting [1]), the “Hs18S ΔCT” value is listed as 0.96. The inhibition at 10 µM with Cryptosporidium parvum (setting [2]) was -18%.
Turning to `[H]/N=C(/N)N[C@H]1[C@H](O)[C@@H](O)[C@H](O[C@@H]2O[C@@H](C)[C@](O)(C=O)[C@H]2O[C@@H]2O[C@@H](CO)[C@H](O)[C@@H](O)[C@@H]2NC)[C@@H](N/C(N)=N\[H])[C@@H]1O` [STREPTOMYCIN SULFATE], the cytotoxicity at 41 h, 10 µM in the data set “in vitro” (human) was -7.1%. Moreover, the “Hs18S ΔCT” value in the data set with HCT-8 host cells (Hs18S) (human, 41 h, 10 μM) is -0.10. For the same molecule, in the data set with Cryptosporidium parvum (setting [2]), the inhibition at 10 µM came out at 15.4%.
Take `O=C1C[C@@H]2OCC=C3CN4CC[C@]56c7ccccc7N1[C@H]5[C@H]2[C@H]3C[C@H]46` [STRYCHNINE]: the cytotoxicity at 10 µM in “in vitro” is -23.5%. The “Hs18S ΔCT” value in the data set on HCT-8 host cells (Hs18S) is recorded as -0.30. Moreover, the inhibition at 10 µM with Cryptosporidium parvum amounted to 29%.
In the case of `COc1cc(C(=O)O)cc(OC)c1O` [SYRINGIC ACID], the cytotoxicity at 10 µM in the data set “in vitro” was -20%. Further, the “Hs18S ΔCT” value in the data set with HCT-8 host cells (Hs18S) (setting [1]) is on record as -0.26. Further, the inhibition at 10 µM with Cryptosporidium parvum (setting [2]) was 3.63%.
Turning to `C=CC[C@@H]1/C=C(\C)C[C@H](C)C[C@H](OC)[C@H]2O[C@@](O)(C(=O)C(=O)N3CCCC[C@H]3C(=O)O[C@H](/C(C)=C/[C@@H]3CC[C@@H](O)[C@H](OC)C3)[C@H](C)[C@@H](O)CC1=O)[C@H](C)C[C@@H]2OC` [TACROLIMUS], in the data set “in vitro” (human), the cytotoxicity at 41 h, 10 µM is 10.4%. Moreover, in the data set on HCT-8 host cells (Hs18S) (human, 41 h, 10 μM), the “Hs18S ΔCT” value is listed as 0.16. Also, in the data set on Cryptosporidium parvum (setting [2]), the inhibition at 10 µM was 75.6%. For the same molecule, the inhibition at 3.3 µM in the data set on Cryptosporidium parvum was -14%.
For the molecule `CN(C)[C@@H]1C(O)=C(C(N)=O)C(=O)[C@@]2(O)C(O)=C3C(=O)c4c(O)cccc4[C@@](C)(O)[C@H]3C[C@@H]12` [TETRACYCLINE HYDROCHLORIDE], in the data set “in vitro”, the cytotoxicity at 10 µM is -24.3%. In the data set with HCT-8 host cells (Hs18S), the “Hs18S ΔCT” value is recorded as -0.31. In addition, the inhibition at 10 µM in the data set on Cryptosporidium parvum (setting [2]) is -17.3%.
In the case of `COc1ccc2cc1Oc1ccc(cc1)C[C@H]1c3cc(c(OC)cc3CCN1C)Oc1c(OC)c(OC)cc3c1[C@H](C2)N(C)CC3` [TETRANDRINE], the cytotoxicity at 41 h, 10 µM in the data set “in vitro” (human) is -2.5%. In addition, the “Hs18S ΔCT” value with HCT-8 host cells (Hs18S) (human, 41 h, 10 μM) is -0.04. Also, the inhibition at 10 µM with Cryptosporidium parvum (setting [2]) stood at 80.4%. The inhibition at 3.3 µM in the data set with Cryptosporidium parvum came to 1%.
For the molecule `O=C(O[C@@H]1Cc2c(O)cc(O)cc2O[C@@H]1c1cc(O)c(=O)c2c(O)c(O)cc([C@H]3Oc4cc(O)cc(O)c4C[C@H]3O)c2c1)c1cc(O)c(O)c(O)c1` [THEAFLAVIN MONOGALLATES], the cytotoxicity at 41 h, 10 µM in “in vitro” (human) is -7.4%. The “Hs18S ΔCT” value in the data set with HCT-8 host cells (Hs18S) (human, 41 h, 10 μM) was -0.10. In addition, the inhibition at 10 µM with Cryptosporidium parvum (setting [2]) was 25.6%.
`O=c1c(O)cc([C@H]2Oc3cc(O)cc(O)c3C[C@H]2O)cc2c([C@H]3Oc4cc(O)cc(O)c4C[C@H]3O)cc(O)c(O)c12` [THEAFLAVIN]: the cytotoxicity at 41 h, 10 µM in “in vitro” (human) is 7.6%. Further, in the data set on HCT-8 host cells (Hs18S) (human, 41 h, 10 μM), the “Hs18S ΔCT” value came to 0.11. The inhibition at 10 µM with Cryptosporidium parvum (setting [2]) amounted to 10.2%.
In the same order, the values of `Cn1cnc2c1c(=O)[nH]c(=O)n2C` [THEOBROMINE] are 2.2%, 0.03 and -18.1%.
In the case of `Cn1c(=O)c2[nH]cnc2n(C)c1=O` [THEOPHYLLINE], the cytotoxicity at 10 µM in the data set “in vitro” was -22.6%. Moreover, the “Hs18S ΔCT” value in the data set with HCT-8 host cells (Hs18S) (setting [1]) is given as -0.29. For the same molecule, the inhibition at 10 µM in the data set on Cryptosporidium parvum (setting [2]) amounted to 20.5%.
`CC1=CC(=O)C(C(C)C)=CC1=O` [THYMOQUINONE]: the cytotoxicity at 41 h, 10 µM in “in vitro” (human) was -5.8%. Besides, the “Hs18S ΔCT” value in the data set on HCT-8 host cells (Hs18S) (human, 41 h, 10 μM) was -0.08. In addition, the inhibition at 10 µM in the data set with Cryptosporidium parvum (setting [2]) turned out to be 3.13%.
On to `C[C@@H]1CC[C@@]2(OC1)O[C@H]1C[C@H]3[C@@H]4CC[C@H]5C[C@@H](O)CC[C@]5(C)[C@H]4CC[C@]3(C)[C@H]1[C@@H]2C` [TIGOGENIN], for which, in the data set “in vitro”, the cytotoxicity at 41 h, 10 µM was -31.8%. Moreover, in the data set with HCT-8 host cells (Hs18S) (setting [1]), the “Hs18S ΔCT” value is given as -0.40. The inhibition at 10 µM with Cryptosporidium parvum (setting [2]) turned out to be 15.4%.
